Data from paper PMC10819888, “Benzimidazole-Based Derivatives as Apoptotic Antiproliferative Agents: Design, Synthesis, Docking, and Mechanistic Studies” (Molecules, 2024).

Assays:
[1] = system: SK-MEL-2; assay: NCI-60 five-dose assay; format: cell-based, human; settings: SK-MEL-2 (Melanoma), 48 h
[2] = system: NCI-H522; assay: NCI-60 five-dose assay; format: cell-based, human; settings: NCI-H522 (Non-Small Cell Lung Cancer), 48 h
[3] = system: NCI-H23; assay: NCI-60 five-dose assay; format: cell-based, human; settings: NCI-H23 (Non-Small Cell Lung Cancer), 48 h
[4] = system: RXF 393; assay: NCI-60 five-dose assay; format: cell-based, human; settings: RXF 393 (Renal Cancer), 48 h
[5] = system: HOP-92; assay: NCI-60 five-dose assay; format: cell-based, human; settings: HOP-92 (Non-Small Cell Lung Cancer), 48 h
[6] = system: Non-Small Cell Lung Cancer subpanel; assay: NCI-60 five-dose assay, subpanel; format: cell-based, human
[7] = system: IGROV1; assay: NCI-60 five-dose assay; format: cell-based, human; settings: IGROV1 (Ovarian Cancer), 48 h
[8] = system: SF-539; assay: NCI-60 five-dose assay; format: cell-based, human; settings: SF-539 (CNS Cancer), 48 h
[9] = system: SF-268; assay: NCI-60 five-dose assay; format: cell-based, human; settings: SF-268 (CNS Cancer), 48 h
[10] = system: MDA-MB-435; assay: NCI-60 five-dose assay; format: cell-based, human; settings: MDA-MB-435 (Melanoma), 48 h
[11] = system: CAKI-1; assay: NCI-60 five-dose assay; format: cell-based, human; settings: CAKI-1 (Renal Cancer), 48 h
[12] = system: TK-10; assay: NCI-60 five-dose assay; format: cell-based, human; settings: TK-10 (Renal Cancer), 48 h
[13] = system: UO-31; assay: NCI-60 five-dose assay; format: cell-based, human; settings: UO-31 (Renal Cancer), 48 h
[14] = system: OVCAR-8; assay: NCI-60 five-dose assay; format: cell-based, human; settings: OVCAR-8 (Ovarian Cancer), 48 h
[15] = system: EKVX; assay: NCI-60 five-dose assay; format: cell-based, human; settings: EKVX (Non-Small Cell Lung Cancer), 48 h
[16] = system: NCI-H460; assay: NCI-60 five-dose assay; format: cell-based, human; settings: NCI-H460 (Non-Small Cell Lung Cancer), 48 h
[17] = system: MOLT-4; assay: NCI-60 five-dose assay; format: cell-based, human; settings: MOLT-4 (Leukemia), 48 h
[18] = system: CNS Cancer subpanel; assay: NCI-60 five-dose assay, subpanel; format: cell-based, human
[19] = system: PC-3; assay: NCI-60 five-dose assay; format: cell-based, human; settings: PC-3 (Prostate Cancer), 48 h
[20] = system: MDA-MB-468; assay: NCI-60 five-dose assay; format: cell-based, human; settings: MDA-MB-468 (Breast Cancer), 48 h
[21] = system: K-562; assay: NCI-60 five-dose assay; format: cell-based, human; settings: K-562 (Leukemia), 48 h
[22] = biological target: BRAF^V600E; assay: biochemical
Chain of BRAF^V600E (P28028 whole entry V585E): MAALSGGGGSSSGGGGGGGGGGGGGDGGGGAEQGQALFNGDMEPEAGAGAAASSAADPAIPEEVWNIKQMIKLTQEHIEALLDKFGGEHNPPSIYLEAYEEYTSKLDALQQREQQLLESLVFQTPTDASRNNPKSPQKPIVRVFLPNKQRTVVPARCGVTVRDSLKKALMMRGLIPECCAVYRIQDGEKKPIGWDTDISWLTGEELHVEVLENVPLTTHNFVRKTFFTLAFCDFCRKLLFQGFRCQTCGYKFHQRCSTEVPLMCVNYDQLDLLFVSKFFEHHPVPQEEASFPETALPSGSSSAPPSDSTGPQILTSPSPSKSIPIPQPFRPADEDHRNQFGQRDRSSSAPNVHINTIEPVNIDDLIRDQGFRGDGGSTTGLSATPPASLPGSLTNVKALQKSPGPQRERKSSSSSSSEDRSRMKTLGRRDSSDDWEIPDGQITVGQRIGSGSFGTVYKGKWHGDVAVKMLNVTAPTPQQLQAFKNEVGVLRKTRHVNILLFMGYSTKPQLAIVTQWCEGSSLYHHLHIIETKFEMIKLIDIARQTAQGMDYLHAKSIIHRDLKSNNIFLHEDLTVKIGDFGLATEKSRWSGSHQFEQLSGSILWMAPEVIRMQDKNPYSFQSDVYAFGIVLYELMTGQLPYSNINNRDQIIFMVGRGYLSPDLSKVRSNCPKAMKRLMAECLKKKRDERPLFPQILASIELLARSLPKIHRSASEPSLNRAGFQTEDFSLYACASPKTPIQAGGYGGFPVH

[23] = system: Colon Cancer subpanel; assay: NCI-60 five-dose assay, subpanel; format: cell-based, human
[24] = system: LOX IMVI; assay: NCI-60 five-dose assay; format: cell-based, human; settings: LOX IMVI (Melanoma), 48 h
[25] = system: HT29; assay: NCI-60 five-dose assay; format: cell-based, human; settings: HT29 (Colon Cancer), 48 h
[26] = Homo sapiens, read-out: GI50 Conc. per Cell Line
[27] = Homo sapiens, read-out: LC50 (the source's name)

O=C(NN=Cc1ccc(Cl)cc1)c1ccc2[nH]c(-c3ccc(Cl)cc3)nc2c1 [Compound 4e, N′-(4-Chlorobenzylidene)-2-(4-chlorophenyl)-1H-benzimidazole-5-carbohydrazide]
LC50 ([1]; Homo sapiens): 11.4 µM
GI50 [1, 26]: 2.09 µM
TGI [1]: 4.64 µM
GI50 [2, 26]: 2.24 µM
CC50 [2, 27]: 77.9 µM
TGI [2]: 5.85 µM
GI50 [3, 26]: 1.93 µM
CC50 [3, 27]: 10.8 µM
TGI [3]: 4.43 µM
GI50 [4, 26]: 1.61 µM
CC50 [4, 27]: 6.64 µM
TGI [4]: 3.27 µM
TGI [5]: 3.53 µM
LC50 (50% lethal concentration) ([5]; Homo sapiens): 7.47 µM
GI50 [5, 26]: 1.67 µM
GI50 ([6]; Homo sapiens, Non-Small Cell Lung Cancer, average sensitivity of all subpanel cell lines, read-out: GI50 Subpanel MID b): 1.9 µM
GI50 Selectivity Ratio (MID a/MID b) ([6]; Non-Small Cell Lung Cancer subpanel): 0.94
GI50 ([7]; Homo sapiens, IGROV-1, read-out: GI50 Conc. per Cell Line): 1.5 µM
CC50 ([7]; Homo sapiens, IGROV-1, read-out: LC50 (the source's name)): 5.92 µM
TGI [7]: 2.98 µM
GI50 [8, 26]: 1.7 µM
CC50 [8, 27]: 5.93 µM
TGI [8]: 3.17 µM
GI50 [9, 26]: 2.08 µM
CC50 [9, 27]: 9.09 µM
TGI [9]: 4.35 µM
GI50 [10, 26]: 1.73 µM
CC50 [10, 27]: 6.49 µM
TGI [10]: 3.35 µM
TGI [11]: 3.29 µM
GI50 [11, 26]: 1.7 µM
CC50 [11, 27]: 6.37 µM
GI50 [12, 26]: 2.06 µM
CC50 [12, 27]: 8.98 µM
TGI [12]: 4.30 µM
GI50 [13, 26]: 1.57 µM
CC50 [13, 27]: 5.67 µM
TGI [13]: 2.99 µM
GI50 [14, 26]: 2.11 µM
CC50 [14, 27]: 16.5 µM
TGI [14]: 4.74 µM
TGI [15]: 3.68 µM
GI50 [15, 26]: 1.82 µM
CC50 [15, 27]: 7.43 µM
LC50 ([16]; Homo sapiens): 6.3 µM
GI50 [16, 26]: 1.56 µM
TGI [16]: 3.13 µM
GI50 [17, 26]: 1.55 µM
CC50 [17, 27]: 28.2 µM
TGI [17]: 4.81 µM
GI50 Selectivity Ratio (MID a/MID b) ([18]; CNS Cancer subpanel): 0.92
GI50 ([18]; Homo sapiens, CNS Cancer, average sensitivity of all subpanel cell lines, read-out: GI50 Subpanel MID b): 1.94 µM
LC50 ([19]; Homo sapiens): 7.05 µM
GI50 [19, 26]: 1.55 µM
TGI [19]: 3.30 µM
LC50 (concentration killing 50% of cells) ([20]; Homo sapiens): 6.36 µM
GI50 [20, 26]: 1.64 µM
TGI [20]: 3.23 µM
GI50 ([21]; Homo sapiens, K562, read-out: GI50 Conc. per Cell Line): 0.969 µM
CC50 ([21]; Homo sapiens, K562, read-out: LC50 (the source's name)): 12.3 µM
TGI [21]: 3.23 µM
IC50 [22]: 0.2 ± 0.02 µM
GI50 Selectivity Ratio (MID a/MID b) ([23]; Colon Cancer subpanel): 1.04
GI50 ([23]; Homo sapiens, Colon Cancer, average sensitivity of all subpanel cell lines, read-out: GI50 Subpanel MID b): 1.72 µM
GI50 [24, 26]: 1.57 µM
CC50 [24, 27]: 5.5 µM
TGI [24]: 2.94 µM
TGI [25]: 5.47 µM
GI50 ([25]; Homo sapiens, HT-29, read-out: GI50 Conc. per Cell Line): 1.97 µM
CC50 ([25]; Homo sapiens, HT-29, read-out: LC50 (the source's name)): 44.1 µM
